In US7465848B2, “Zebrafish assay” (priority 2002, dated 2008):

Legend:
zebrafish KCNH2 = experiment: Zebrafish KCNH2 knock-down with antisense morpholino, heart rate; type: in vivo, Danio rerio; details: about 5 nL injected at the single cell stage
Method: Approximately 5 nL of the morpholino antisense oligonucleotide diluted in Danieau's solution at the concentrations shown were injected into the zebrafish embryo at the single cell stage. The zebrafish KCNH2 morpholino was directed against the splice donor site of the sixth exon of the zebrafish KCNH2 ortholog (5′-[…]-3′; SEQ ID NO:2).

zebrafish = details: for effect on zebrafish heart rate (bradycardia) in the initial screen: compound added to medium at 48 hpf, 1, 10, 100 mcg/ml, highest non-lethal concentration, ventricular rate
Method: TubingenAB zebrafish embryos were reared in E3 Media (5 mM NaCl, 0.17 mM KCl, 0.33 mM MgCl2, 0.33 mM CaCl2). At 24 hours post fertilization (hpf) the embryos were distributed into 96 well plates, 3-5 embryos per well with […] of E3 supplemented with phenylthiourea at 0.03 g/l to inhibit pigmentation.
DMSO alone was used as a control. HR measurement: 15 second video recordings were obtained from each well using a Nikon TE200 microscope fitted with a computer controlled stage, and a Hamamatsu ORCA-ER camera. One hundred twenty-eight frames with an exposure time of 90 ms were recorded for each video. Digital movies were taken for each well, one from each quadrant. These video clips were stored digitally.
Offline analysis was performed with commercially available imaging software (Metamorph Software, Universal Imaging). The average pixel density was measured for a region of interest over the heart, and these densities were plotted against time. […] The frequency spectrum was plotted and the peak was reported in a spreadsheet. Manual review of both time domain and frequency domain data as well as the peak frequency was performed to ensure the validity of the data. Fast-Fourier Transform was performed to determine HR. […] Each compound was tested at 1, 10, and 100 mcg/ml and the highest, non-lethal concentration chosen for HR effect. A two-tailed Student's t-test was performed to determine statistical significance.

## 5′-CCGTCGTACAGGCATGTTGTCCTA-3′ (all phosphorodiamidate morpholino (PMO)) [antisense morpholino]
Zebrafish KCNH2
  effect of KCNH2 antisense morpholino on zebrafish heart rate: elicited bradycardia in a dose-dependent manner
Zebrafish KCNH2; listed as antisense morpholino oligonucleotides directed against zebrafish KCNH2
  effect of KCNH2 antisense morpholino on zebrafish heart rate: dose-dependent effect on HR

## CCN(CC)CCNC(=O)c1ccc(NC(C)=O)cc1 [N-acetyl-procainamide]
zebrafish
  effect on zebrafish heart rate (bradycardia) in the initial screen: failed to cause bradycardia

## CN/C(=N/CCSCc1nc[nH]c1C)NC#N [cimetidine]
zebrafish; in vivo
  drug-drug interaction on HR, cimetidine and terfenadine: interaction of cimetidine and terfenadine

## COc1cc(N)c(Cl)cc1C(=O)NC1CCN(CCCOc2ccc(F)cc2)CC1OC (centres unmarked) [cisapride]
zebrafish; cisapride in combination with erythromycin (FIG. 2C)
  change of ED50 on HR for cisapride with increasing doses of erythromycin: ten-fold decrease

## CC[C@H]1OC(=O)[C@H](C)[C@@H](O[C@H]2C[C@@](C)(OC)[C@@H](O)[C@H](C)O2)[C@H](C)[C@@H](O[C@@H]2O[C@H](C)C[C@H](N(C)C)[C@H]2O)[C@](C)(O)C[C@@H](C)C(=O)[C@H](C)[C@@H](O)[C@]1(C)O [erythromycin]
zebrafish; in vivo
  absorption into the zebrafish embryo: is absorbed

## CC(=O)N1CCN(c2ccc(OCC3COC(Cn4ccnc4)(c4ccc(Cl)cc4Cl)O3)cc2)CC1 (centres unmarked) [ketoconazole]
zebrafish; in vivo
  drug-drug interaction on HR, ketoconazole and terfenadine: faithfully reproduced

## N=C(N)c1ccc(OCCCCCOc2ccc(C(=N)N)cc2)cc1 [pentamadine]
zebrafish
  effect on zebrafish heart rate (bradycardia) in the initial screen: failed to cause bradycardia
